| solubility (mole fraction) (in n-octanol, 298.15 K) | solubility (mole fraction) (in n-octanol, 303.15 K) | solubility (mole fraction) (in n-octanol, 308.15 K) | solubility (mole fraction) (in n-octanol, 313.15 K) | solubility (mole fraction) (in water, 298.15 K) | solubility (mole fraction) (in water, 303.15 K) | solubility (mole fraction) (in water, 308.15 K) | solubility (mole fraction) (in water, 313.15 K) | SMILES |
| --- | --- | --- | --- | --- | --- | --- | --- | --- |
| 9.49e-05 | 0.00013 | 0.000168 | 0.000206 | 3.25e-05 | 4.33e-05 | 5.92e-05 | 7.35e-05 | Nc1ccc(S(=O)(=O)Nc2nccs2)cc1 |
| 1.39e-05 | 1.79e-05 | 2.32e-05 | 3.09e-05 | 4.87e-06 | 5.98e-06 | 7.94e-06 | 1.09e-05 | Nc1ccc(S(=O)(=O)Nc2ncccn2)cc1 |

From BigSolDB 2.1
